# Reference: patent US10160705B2, “Class of HDAC inhibitors expands the renal progenitor cells population and improves the rate of recovery from acute kidney injury” (University of Pittsburgh—Of the Commonwealth System of …, priority 2011, dated 2018)
# System: renal progenitor cells
# Test: In situ hybridization for lhx1a expression in 10-somite embryos (renal progenitor cell expansion)
# Type: in vivo
# Settings: for responders at 0.2 µM / responders at 0.4 µM / responders at 0.8 µM / responders at 1.5 µM / responders at 3 µM / EC50: Danio rerio; for responders at 0.2 µM: 200 nM, read-out: Expansion of Cells (including repeats* and recounts**) 200 nM; for responders at 0.4 µM: 400 nM, read-out: Expansion of Cells (including repeats* and recounts**) 400 nM; for responders at 0.8 µM: 800 nM, read-out: Expansion of Cells (including repeats* and recounts**) 800 nM; for responders at 1.5 µM: read-out: Expansion of Cells (including repeats* and recounts**) 1.5 μM; for responders at 3 µM: read-out: Expansion of Cells (including repeats* and recounts**) 3 μM; for EC50: first pass EC50 from percent expansion (Excel trendline), average where several experiments
# Protocol: PTBA was synthesized as described below. Hydroxyurea and aphidicolin were obtained from Sigma-Aldrich.
# In situ hybridization and immunocytochemistry: In situ hybridization was performed as previously described with some modifications.142 Hybridization temperature was 65° C. Embryos were blocked in 2% blocking reagent (Roche) with 5% sheep serum in MAB (100 mM maleic acid and 150 mM NaCl [pH 7.5]). Whole-mount immunocytochemistry with 1:25 mouse anti-α6F antibody (Developmental Studies Hybridoma Bank) and 1:100 Cy3 secondary antibody (Jackson ImmunoResearch) was performed as described previously.108 Embryos were embedded in JB-4 for sectioning per the manufacturer's instructions (Polysciences), sectioned at 5 μm, and mounted with Cytoseal 60 (Richard-Allan Scientific).
# The remaining PTBA analogs were synthesized.
# In situ hybridization for lhx1a was performed as described above. […] Compounds were classified as effective, partially-effective or ineffective based on comparison to the effects of PTBA at a given concentration.
# Testing of the compounds is on-going, but for those tested, Table 6 provides first pass EC50s based upon colormetric in situ hybridizations for the Lhx1a mRNA expression levels. After the procedure is run, in situ hybridization is done for the lhx1 mRNA expression and the number of embryos that show an expanded kidney field is manually counted to establish the percent of embryos showing expansion. Then the EC50 is determined by plotting the percent expansion in Excel, graphing the results and using the trendline function to determine the 50 percent point.
# [1] = percent of embryos with expanded kidney field
# [2] = percent of embryos with expanded kidney field, 1.5 μM
# [3] = percent of embryos with expanded kidney field, 3 μM
Compound,responders at 0.2 µM [1] [%],responders at 0.4 µM [1] [%],responders at 0.8 µM [1] [%],responders at 1.5 µM [2] [%],responders at 3 µM [3] [%],EC50 [nM],Expansion of Cells (including repeats* and recounts**) 1.5 μM [2],Expansion of Cells (including repeats* and recounts**) 3 μM [3]
"Nc1ccccc1NC(=O)CCCCCSc1ccccc1 [UPHD-00049, N-(2-aminophenyl)-6-(phenylsulfanyl)hexanamide]",5,35,60,95,100,890,,
"O=C(CCCCCCSc1ccccc1)NO [UPHD-00041, N-hydroxy-7-(phenyl-sulfanyl)heptanamide]",,,0,0,0,> 3000,,
"O=C(CCCCSc1ccc(F)cc1)NO [UPHD-00034, 5-[(4-fluoro-phenyl)sulfanyl]-N-hydroxypentanamide]",,10,,,,,,
"COC(=O)CCCCSc1ccccc1 [UPHD-00033, methyl 5-(phenylsulfanyl)pentanoate]",,,0,5,11,> 3000,,
"Nc1ccccc1NC(=O)CCCCCSc1ccccn1 [UPHD-00073, N-(2-aminophenyl)-6-(pyridin-2-ylsulfanyl)hexanamide]",5,10,0,20,30,> 3000,,
"COC(=O)c1ccc(CSc2ccccc2)cc1 [UPHD-00045, methyl 4[(phenyl-sulfanyl)methyl]benzoate]",,,17,0,17,> 3000,,
"Nc1ccccc1NC(=O)CCCCCS(=O)(=O)c1ccc2ccccc2c1 [UPHD-00066, N-(2-aminophenyl)-6-(naphthalene-2-sulfonyl)hexanamide]",0,0,5,11,10,> 3000,,
"O=C(CCCCCSc1ccccc1)NO [UPHD-00050, N-hydroxy-6-(phenyl-sulfanyl)hexanamide]",,,0,0,0,> 3000,,
"Nc1ccccc1NC(=O)CCCCSc1ccc(F)cc1 [UPHD-00037, N-(2-aminophenyl)-5-[(4-fluoro-phenyl)sulfanyl]pentanamide]",10,,,,,2590,,
"COC(=O)CCCCCS(=O)(=O)c1ccc2ccccc2c1 [UPHD-00063, methyl 6-(naphthalen-2-ylsulfonyl)hexanoate]",10,5,0,0,6,> 3000,,
"Nc1ccccc1NC(=O)CCCCCCSc1ccccc1 [UPHD-00044, N-(2-aminophenyl)-7-(phenylsulfanyl)heptanamide]",,,,,,1490,,
"O=C(NO)c1ccc(CSc2ccccc2)cc1 [UPHD-00052, N-hydroxy-4-[(phenyl-sulfanyl)methyl]benzamide]",0,0,0,10,,> 3000,,
"O=C(CCCCCSc1ccc2ccccc2c1)NO [UPHD-00059, N-hydroxy-6-(naphthalen-2-ylsulfanyl)hexanamide]",0,5,12,16,33,> 3000,,
"O=C(CCCCCSc1ccc(F)cc1)Nc1ccccc1O [UPHD-00077, 6-[(4-fluoro-phenyl)sulfanyl]-N-(2-hydroxyphenyl)hexanamide]",40,100,100,,,230,ND (All Dead),ND (All Dead)
"Nc1ccccc1NC(=O)CCCCCSc1ccc2ccccc2c1 [UPHD-00060, N-(2-aminophenyl)-6-(naphthalen-2-ylsulfanyl)hexanamide]",5,0,10,20,5,> 3000,,
"Nc1ccccc1NC(=O)CCCCSc1ccccc1 [UPHD-00038, N-(2-aminophenyl)-5-(phenylsulfanyl)pentanamide]",,,58,81,85,,,
